In article PMC12040169 (PLOS Biology, 2025):

Assay: in vitro
Settings: human, hela cells, % viability

Structure (SMILES)	viability at 28.5 h, 10 µM [%]
COc1ccc(NC(=O)CSc2cnn[nH]2)cc1OC [CBK270010]	102
Cc1cc(CNC(=O)c2ccc3c(c2)OCO3)c2ccccc2n1 [CBK270014]	72.1
N#Cc1ccccc1NC(=O)CSc1nc2cc(Cl)ccc2[nH]1 [CBK270019]	99.4
O=C(Cn1cnc2ccccc2c1=O)Nc1cccc(-c2cnc3ccccc3n2)c1 [CBK270020]	83.7
CC(=O)c1c(C)nn(C(C)CC(=O)Nc2ccc(Cl)c(Cl)c2)c1C (stereo not shown) [CBK270021]	87.3
O=C(CSc1cnn[nH]1)Nc1ccc(F)cc1 [CBK270024]	89.6
COc1cc(CNCc2cccnc2)cc(Cl)c1OCc1cccs1 [CBK270026C]	96.2
CCOc1cc(CNCc2ccc(C(=O)O)cc2)ccc1OC [CBK270029C]	89.7
Cn1c(=O)c2[nH]c(N3CCCNCC3)nc2n(C)c1=O [CBK270030]	97
CC(=O)Nc1cccc(C(=O)N2CCN(Cc3ccc4c(c3)OCO4)CC2)c1 [CBK270031]	89.2
CCOc1ccc(S(=O)(=O)N(C)CC(=O)O)cc1 [CBK270032]	90.4
Clc1ccc(OCc2nnn[nH]2)c(C2CCCCC2)c1 [CBK270035]	103
CCC(Oc1ccc(C)cc1)C(=O)Nc1ccc(S(N)(=O)=O)cc1 (stereo not shown) [CBK270036]	90.5
COCC(C)NS(=O)(=O)c1cc(C)ccc1OC (stereo not shown) [CBK270037]	85.6
Cc1[nH]c2ccccc2c1C(=O)C(=O)Nc1sc(C)c(C)c1C#N [CBK270038]	85.9
Cc1cc(C)n2nc(NC(=O)C(C)Oc3ccccc3)nc2n1 (stereo not shown) [CBK270039]	89.9
N#Cc1c(NC(=O)CCn2cnnn2)sc2c1CCC2 [CBK270041]	93.5
O=C(O)CCCn1cc(NC(=O)c2ccc(Br)o2)cn1 [CBK270042]	106
CSc1nsc(SCC(=O)Nc2ccc3c(c2)OCO3)n1 [CBK270044]	88.6
CCOc1ccc2ccccc2c1CNCCSc1nnnn1C [CBK270046C]	90.6
Cc1ccc2nc(CSc3ncnc4sc(C)cc34)[nH]c2c1 [CBK270047]	97.1
CCC(C)(C)C1CCc2c(sc(NC(=O)CN3CCOCC3)c2C#N)C1 (stereo not shown) [CBK270048]	89.4
O=C(O)CCCn1cc(NC(=O)c2cccc(F)c2)cn1 [CBK270051]	91.4
COc1ccc(C(=O)Nc2cnn(CCCC(=O)O)c2)cc1 [CBK270052]	89.7

Structure (SMILES)	viability at 28.5 h, 10 µM [%]
COc1cccc(C(=O)Nc2ccc(-c3noc(-c4ccccn4)n3)cc2)c1 [CBK270055]	110
O=C(NCCN1CCOCC1)N(c1ccccc1)c1ccccc1 [CBK270057]	92.8
Clc1ccc(COc2cccc(CNCc3ccccn3)c2)c(Cl)c1 [CBK270060C]	88.8
N#Cc1ccc(Cn2cc(C(=O)C(N)=O)c3ccccc32)cc1 [CBK270062]	84.2
COc1nc2ccccc2nc1CCC(=O)NC(C)c1ccccc1 (stereo not shown) [CBK270065]	100
COc1ccc2oc(=O)c(C(=O)Nc3cccc(O)c3)cc2c1 [CBK270070]	87.3
COc1ccc(CN2CCNC(=O)C2CC(=O)O)c(OC)c1 (stereo not shown) [CBK270072]	112
Cc1ccc(S(=O)(=O)c2ccccc2)cc1S(=O)(=O)NCc1ccncc1 [CBK270073]	98.4
Fc1ccc(CSc2nnc(-c3ccccn3)[nH]2)cc1 [CBK270074]	85.8
O=C(Nc1ccccc1C(=O)NCCN1CCOCC1)c1cccs1 [CBK270077]	94.4
O=C1CC(N2CCN(CCc3ccncc3)CC2)C(=O)N1c1ccc(Cl)cc1 (stereo not shown) [CBK270078]	85.6
O=C(O)C1CC=CCC1C(=O)NCc1ccc(N2CCCC2=O)cc1 (stereo not shown) [CBK270081]	79.7
COc1cc(CNCc2cccnc2)ccc1OCc1cccs1 [CBK270082C]	86.7
C=CCNC(=O)c1ccccc1NC(=O)Cc1ccc(Cl)cc1 [CBK270086]	101
O=C(O)CC1C(=O)NCCN1C1Cc2ccccc2C1 (stereo not shown) [CBK270089]	88.2
O=C(NCCO)C1CCCN(S(=O)(=O)c2ccc3ccccc3c2)C1 (stereo not shown) [CBK270090]	83.7
O=C(CCNS(=O)(=O)c1ccccc1)N1CCC(Cc2ccccc2)CC1 [CBK270091]	84.9
O=C(Nc1cccnc1)c1cc(S(=O)(=O)N2CCOCC2)ccc1Br [CBK270101]	92.4
Cc1cc(-c2nc3ncccc3o2)ccc1NC(=O)c1ccc2c(c1)OCCO2 [CBK270104]	94.1
COc1ccccc1-c1nnc(SCC(=O)N2CCN(c3ccccc3)CC2)[nH]1 [CBK270105]	95.6
Cc1nnc(SCc2cc(=O)[nH]c(N3CCN(C)CC3)n2)s1 [CBK270106]	91.7
COc1cc(CNCc2ccccn2)ccc1OCc1ccccc1C [CBK270108C]	89.3
CN(C)c1cccc(Oc2nc3c(c(=O)n(C)c(=O)n3C)n2C)c1 [CBK270109]	97.8
CCC(=O)N1CCN(c2ccccc2NC(=O)c2ccc(C#N)cc2F)CC1 [CBK270110]	81.8

Structure (SMILES)	viability at 28.5 h, 10 µM [%]
CS(=O)(=O)N(CC(=O)NC1CCCCCCC1)c1ccccc1 [CBK270112]	96.1
O=C(CSc1nc2cccnc2[nH]1)Nc1cccc(F)c1 [CBK270113]	89.3
O=C(O)CC1C(=O)NCCN1Cc1ccccc1Cl (stereo not shown) [CBK270114]	93
OCCC1CNCCN1CC1CCCCC1 (stereo not shown) [CBK270115]	97.2
Cc1occc1C(=O)Nc1cnn(CCCC(=O)O)c1 [CBK270116]	89.4
O=C(NCCN1CCOCC1)c1ccc(NS(=O)(=O)c2ccccc2)cc1 [CBK270118]	102
O=C(O)CCCn1cc(NC(=O)Cc2ccccc2F)cn1 [CBK270119]	96.3
Nc1nncn1C(=O)c1ccccc1SCc1ccccc1 [CBK270120]	88.9
CC(C)C(N)c1nnc(SCc2ccccc2Cl)o1 (stereo not shown) [CBK270121C]	92
COc1ccc(Cl)cc1NC(=O)Cn1nc(-c2ccccc2)ccc1=O [CBK270124]	85.1
COc1ccc(CNC(=O)C2CC(=O)N(c3ccc(O)cc3)C2)cc1 (stereo not shown) [CBK270125]	96.8
CC(C)Cc1ccc(S(=O)(=O)Nc2ccc3[nH]c(=O)[nH]c3c2)cc1 [CBK270131]	94.3
CCC(Oc1ccc(C)cc1)C(=O)Nc1ccccc1C(=O)N1CCOCC1 (stereo not shown) [CBK270132]	85.6
COCCNCc1ccc(OCc2ccccc2)cc1 [CBK270133C]	91.1
O=C(O)c1ccc(NC(=O)c2cccc(-n3cnnc3)c2)cc1 [CBK270134]	104
CCNCCOc1c(C)cc(C)cc1C [CBK270137C]	108
COc1ccc(CNC(=O)CCn2c(=O)oc3ccccc32)cc1 [CBK270138]	92.7
Cc1cn2c3c(=O)n(C)c(=O)n(C)c3nc2n1CCN1CCOCC1 [CBK270139]	91.7
O=C1c2ccccc2C(=O)N1CCCc1nn2c(-c3cccnc3)nnc2s1 [CBK270140]	80.2
COc1c(Cl)cc(Cl)cc1CNCc1cccnc1 [CBK270142C]	94.2
COc1ccc(CN2CCNC(=O)C2CC(=O)O)c(F)c1 (stereo not shown) [CBK270143]	95.6
c1ccc2c(c1)nc(N1CCNCC1)n1cnnc21 [CBK270145]	100
Cc1nnc2c(N3CCN(CCO)CC3)nc3ccccc3n12 [CBK270146]	83.2
CCOc1cc(S(=O)(=O)NCc2ccncc2)ccc1Br [CBK270147]	82.3

Structure (SMILES)	viability at 28.5 h, 10 µM [%]
O=C(Nc1ccccc1-c1nc2ccccc2[nH]1)c1ccncc1 [CBK270148]	94.5
COc1cccc(NC(=O)CCS(=O)(=O)c2ccccc2)c1 [CBK270150]	91.9
CS(=O)(=O)N1CCC(C(=O)NCCN2CCOCC2)CC1 [CBK270151]	100
FC(F)(F)c1ccc(Oc2ccc(-c3noc(-c4ccccn4)n3)cc2)nc1 [CBK270152]	90.1
Cc1cc(C)nc(NCCC(=O)O)n1 [CBK270154]	89.1
O=C1COc2ccc(S(=O)(=O)NCc3ccccc3)cc2N1 [CBK270156]	93.7
Cc1ccc(NC2=NC3(N=C(N)N2)C(=O)N(C)c2ccccc23)cc1 (stereo not shown) [CBK270157]	84.9
Cc1cc2c(cc1S(=O)(=O)NCc1ccccc1)NC(=O)CO2 [CBK270159]	85.2
COc1ccc(CCNC(=O)c2n[nH]c(=O)c3ccccc23)cc1OC [CBK270160]	87.6
O=C1COc2ccc(S(=O)(=O)NCCc3ccccc3)cc2N1 [CBK270162]	114
Cc1ccc(Nc2nc(N)nc(CN3CCCC3)n2)cc1 [CBK270163]	97.7
Cc1cc(C)nc(-n2[nH]c(N)cc2=O)n1 [CBK270164]	85.7
CCc1nnc(SCC(=O)Nc2cc(OC)ccc2OC)[nH]1 [CBK270167]	85.1
CCCNS(=O)(=O)c1ccc(OCC(=O)N2CCN(C)CC2)c(C)c1 [CBK270169]	102
Cc1ccc(Cc2c(C)nc(N3CCN(Cc4ccccc4)CC3)[nH]c2=O)cc1 [CBK270170]	115
CCc1c(C)nc(SC(C(=O)O)c2ccccc2)c(C#N)c1C (stereo not shown) [CBK270174]	94.9
O=C(O)C1=NN(c2ccccc2)C(=O)CC1 [CBK270176]	84.4
CCOc1ccc(S(=O)(=O)NC(C)C(=O)O)cc1C (stereo not shown) [CBK270178]	114
CNS(=O)(=O)c1cc(C(=O)O)ccc1OC [CBK270179]	104
CCCSc1ccc2[nH]c(NC(=O)CSc3nc[nH]n3)nc2c1 [CBK270181]	51.8
O=C(NCc1ccc(-c2nc3ncccc3o2)cc1)c1ccc(F)cc1 [CBK270182]	91.3
CCn1c(CN2CCOCC2)nnc1SCC(=O)Nc1cc(Cl)ccc1C [CBK270183]	93.8
